Counter-ions that a name gives are not always drawn. Like-named read-outs stand apart in the source and are kept apart here.
Legend:
[1] = molecular target: T1, phosphorylated VEGF-R2Δ50 (FLVK-P) (Homo sapiens, UniProt P35968, DEL940-989/E990V); assay: VEGF-R2 coupled spectrophotometric assay, phosphorylated construct (FLVK-P); type: biochemical; conditions: for inhibition at 0.05 µM: @ 50 nM, read-out: FLVK-P percent inhibition
T1 construct: VEGF-R2Δ50 contains residues 806-939 and 990-1171; made in house; host or cells: baculovirus/insect cells
How it was run: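 Baculovirus-expressed VEGF-R2Δ50 (residues 806-939/990-1171, E990V), optionally autophosphorylated; ADP formation coupled via PK/LDH to NADH oxidation at 340 nm, pH 7.5 Hepes. FLVK-P: 1 mM ATP, 5.1 mM poly(E4Y1), 25 mM MgCl2; FLVK: 3 mM ATP, 20 mM poly(E4Y1), 60 mM MgCl2, 2 mM MnCl2. Ki from activity over compound concentrations.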

LCK tyrosine kinase = molecular target: T2, LCK tyrosine kinase (Homo sapiens, UniProt P06239, C224D/P223M); assay: LCK spectrophotometric assay; type: biochemical; conditions: @ 1 μM; read-out: LCK-P percent inhibition;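 further: recombinant LCK kinase activity on poly(E4Y1), ADP formation coupled through PK/LDH to NADH oxidation, followed as absorbance loss at 340 nm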
T2 construct: starting from amino acid residue 223 to the end of the protein at residue 509; made in house; host or cells: insect cells

[2] = system: lung cancer cells (line MV522); assay: Cancer cell proliferation (MV522) assay (MTT); type: cell-based; conditions: MV522
Method: The protocol for assessing cellular proliferation in cancer cells is similar to that used for assessments in HUVEC cells. Two thousand lung cancer cells (line MV522, acquired from American Tissue Cultural Collection) were seeded in growth media (RPMI1640 medium supplemented with 2 mM glutamine and 10% FBS). Cells are allowed to attach for 1 day prior to addition of test agents and/or vehicles. Cells are treated simultaneously with the same test agents used in the HUVEC assay. Cellular proliferation is quantified by MTT dye reduction assay 72 hours after exposure to test agents. The total length of the assay is 4 days vs. 5 for HUVEC cells because MV522 cells are not exposed to starvation medium.

[3] = system: human umbilical vein endothelial cells (HUVEC); assay: HUVEC proliferation assay (VEGF-stimulated, MTT); type: cell-based; conditions: Homo sapiens, read-out: HUVEC IC50
Method: This assay determines the ability of a test compound to inhibit the growth factor-stimulated proliferation of human umbilical vein endothelial cells (“HUVEC”). HUVEC cells (passage 3-4, Clonetics, Corp.) were thawed into EGM2 culture medium (Clonetics Corp) in T75 flasks. Fresh EGM2 medium was added to the flasks 24 hours later. Four or five days later, cells were exposed to another culture medium (F12K medium supplemented with 10% fetal bovine serum (FBS), 60 μg/ml endothelial cell growth supplement (ECGS), and 0.1 mg/ml heparin). Exponentially-growing HUVEC cells were used in experiments thereafter. Ten to twelve thousand HUVEC cells were plated in 96-well dishes in 100 μl of rich, culture medium (described above). The cells were allowed to attach for 24 hours in this medium. The medium was then removed by aspiration and 105 μl of starvation media (F12K+1% FBS) was added to each well. After 24 hours, 15 μl of test agent dissolved in 1% DMSO in starvation medium or this vehicle alone was added into each treatment well; the final DMSO concentration was 0.1%. One hour later, 30 μl of VEGF (30 ng/ml) in starvation media was added to all wells except those containing untreated controls; the final VEGF concentration was 6 ng/ml. Cellular proliferation was quantified 72 hours later by MTT dye reduction, at which time cells were exposed for 4 hours MTT (Promega Corp.). Dye reduction was stopped by addition of a stop solution (Promega Corp.) and absorbance at 595 λ was determined on a 96-well spectrophotometer plate reader.

[4] = molecular target: T3, unphosphorylated VEGF-R2Δ50 (FLVK) (Homo sapiens, UniProt P35968, DEL940-989/E990V); assay: VEGF-R2 coupled spectrophotometric assay, unphosphorylated construct (FLVK); type: biochemical; conditions: for inhibition at 0.05 µM: @ 50 nM, read-out: FLVK percent inhibition;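 on all read-outs here: Baculovirus-expressed cytosolic kinase domain, ADP formation linked via pyruvate kinase and lactate dehydrogenase to NADH oxidation, read as falling absorbance at 340 nm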
T3 construct: VEGF-R2Δ50 contains residues 806-939 and 990-1171; made in house; host or cells: baculovirus/insect cells
T3 sequence (P35968 with tags, fused parts or gaps DEL940-989/E990V limits assumed): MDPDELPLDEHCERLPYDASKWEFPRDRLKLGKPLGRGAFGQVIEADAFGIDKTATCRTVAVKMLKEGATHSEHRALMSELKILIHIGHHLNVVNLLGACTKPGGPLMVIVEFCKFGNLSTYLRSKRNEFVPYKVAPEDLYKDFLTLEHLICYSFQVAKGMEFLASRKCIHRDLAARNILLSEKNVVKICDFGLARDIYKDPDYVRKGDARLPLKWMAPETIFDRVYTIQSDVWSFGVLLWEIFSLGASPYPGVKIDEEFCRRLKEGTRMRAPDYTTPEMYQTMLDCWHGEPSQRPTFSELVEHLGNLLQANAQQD

T2 sequence (P06239 223-509 P223M/C224D): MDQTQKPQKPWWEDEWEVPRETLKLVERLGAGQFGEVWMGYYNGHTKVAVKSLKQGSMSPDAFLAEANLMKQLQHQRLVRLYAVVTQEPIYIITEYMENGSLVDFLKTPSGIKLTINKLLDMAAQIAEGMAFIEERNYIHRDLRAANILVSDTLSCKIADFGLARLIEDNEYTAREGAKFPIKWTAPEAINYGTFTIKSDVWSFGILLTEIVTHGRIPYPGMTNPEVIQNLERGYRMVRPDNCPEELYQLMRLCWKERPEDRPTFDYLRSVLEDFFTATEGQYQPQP
T1 sequence (P35968 with tags, fused parts or gaps DEL940-989/E990V limits assumed): as the sequence (P35968 with tags, fused parts or gaps DEL940-989/E990V limits assumed) above

melting point	Ki [1] [nM]	IC50 [2] [nM]	SMILES	IC50 ([3]; HUVEC) [nM]	also measured
103 to 107 °C			O=C(Nc1ccc(N2CCNCC2)c(C(F)(F)F)c1)c1ccc(F)c(OCc2cncc3ccccc23)c1 (as salt: hydrochloride) [Example R-15, 4-Fluoro-N-(4-piperazin-1-yl-3-trifluoromethyl-phenyl)-3-(isoquinolin-4-ylmethoxy)-benzamide]		
76 to 78 °C			O=C(Nc1ccc(N2CCNCC2)c(C(F)(F)F)c1)c1ccc(F)c(OCc2cnc3ccccc3c2)c1 (as salt: hydrochloride) [Example R-17, 4-Fluoro-N-(4-piperazin-1-yl-3-trifluoromethyl-phenyl)-3-(quinolin-3-ylmethoxy)-benzamide]		
133 to 135 °C	1050		Cc1ccc2cc(NC(=O)c3cccc(CSc4cnccn4)c3)ccc2n1 [Example A-6, N-(2-Methylquinolin-6-yl)-3-[(pyrazin-2-yl)sulfanylmethyl]benzamide]		
> 150 °C (dec.)			COC(=O)Nc1n[nH]c(SCc2cccc(C(=O)Nc3cc(OC)c(OC)c(OC)c3)c2)n1 [Example C-2, 3-[(5-(Methoxycarbonylamino)-2H-[1,2,4]triazol-3-yl)sulfanylmethyl]-N-(3,4,5-Trimethoxyphenyl)benzamide]		
189 to 192 °C	52		Cc1ccc2cc(NC(=O)c3cccc(OCc4ccc(N)nc4)c3)ccc2n1 [Example M-1, 3-(6-Aminopyridin-3-yl)methoxy-N-(2-methyl-quinolin-6-yl)-benzamide]		
125 to 131 °C			COc1cccc(/C=N/Nc2ncc(COc3cccc(C(=O)Nc4ccc(C(C)C)c(C)c4)c3)c3ccccc23)c1 [Example Q-1, N-(4-Isopropyl-3-methyl-phenyl)-3-{1-[N′-(3-methoxy-benzylidene)-hydrazino]-isoquinolin-4-ylmethoxy}-benzamide]	100 to 300	inhibition at 0.05 µM [1]: 17%
209 to 211 °C		> 10000	O=C(Nc1cc(Cl)c(N2CCOCC2)c(Cl)c1)c1ccc(F)c(OCc2cccnc2)c1 [Example R-18, N-(3,5-Dichloro-4-morpholin-4-yl-phenyl)-4-fluoro-3-(pyridin-3-ylmethoxy)-benzamide]	18	Ki [4]: 3.1 nM
143 to 144 °C	12.4	> 10000	Cc1cc(NC(=O)c2cccc(CCc3cccnc3)c2)ccc1C(C)C [Example U-2, N-(4-Isopropyl-3-methyl-phenyl)-3-(2-pyridin-3-yl-ethyl)-benzamide]	100	
138 to 140 °C			O=C(Nc1cccc(OCc2cccnc2)c1)N1CCCC1 [Example Y-1, 1-[3-(pyridin-3-ylmethoxy)phenylcarbamoyl]pyrrolidine]		inhibition at 0.05 µM [4]: 6%; IC50 ([3]; VEGF-stimulated HUVEC proliferation): > 700 nM

Further lines, the compound ahead of its results:

SMILES	melting point	Ki [1] [nM]	IC50 [2] [nM]	IC50 ([3]; HUVEC) [nM]	also measured
O=C(Nc1cccc(OCc2cccnc2)c1)N1CCOCC1 (as salt: salt) [Example Y-2, 4-[3-(pyridin-3-ylmethoxy)phenylcarbamoyl]morpholine]	58 to 62 °C				
COc1cc(NC(=O)c2cccc(CSc3cnccn3)c2)cc(OC)c1OC [Example A-1, N-(3,4,5-Trimethoxyphenyl)-3-[(pyrazin-2-yl)sulfanylmethyl]benzamide]	112 to 119 °C	785			
O=C(Nc1ccc2ncccc2c1)c1cccc(CSc2ncnc3[nH]ncc23)c1 [Example B-3, N-(Quinolin-6-yl)-3-[(1H-pyrazolo[3,4-d]pyrimidin-4-yl)sulfanylmethyl]benzamide]	236 to 240 °C (dec.)	406			
COc1cc(NC(=O)c2cccc(CSc3ncnc4[nH]ncc34)c2)cc(C(F)(F)F)c1 [Example B-16, 3-[(1H-Pyrazolo[3,4-d]pyrimidin-4-yl)sulfanylmethyl]-N(3-trifluoromethyl-5-methoxyphenyl)-benzamide]		15	> 10000	370	inhibition at 1 µM (LCK tyrosine kinase): 9%
COc1cc(NC(=O)c2cccc(CSc3nc(NC#N)n[nH]3)c2)cc(OC)c1OC [Example C-1, 3-[(5-Cyanoamino-2H-[1,2,4]triazol-3-yl)sulfanylmethyl]-N-(3,4,5-trimethoxyphenyl)benzamide]	> 165 °C (dec.)				
COc1cc(NC(=O)c2cccc(CSc3nc(NC(C)=O)n[nH]3)c2)cc(OC)c1OC [Example C-3, N-(3,4,5-Trimethoxyphenyl)-3-[(5-acetylamino-2H-[1,2,4]triazol-3-yl)sulfanylmethyl]benzamide]	196 to 201 °C				
Cc1ccc2cc(NC(=O)c3cccc(SCc4cnccn4)c3)ccc2n1 [Example D-2, N-(2-Methylquinolin-6-yl)-3-[(pyrazin-2-yl)methylsulfanyl]benzamide]	102 to 105 °C	1640			
Cc1ccc2cc(NC(=O)c3cccc(SCc4cc(-c5ccccc5)n[nH]4)c3)ccc2n1 [Example F-2]	99 to 101 °C	14.7	> 10000	650	
Cc1ccc2cc(NC(=O)c3cccc(CCc4cc(Nc5ccccc5)n[nH]4)c3)ccc2n1 [Example G-2, N-(2-Methylquinolin-6-yl)-3-[2-(5-phenylamino-2H-pyrazol-3-yl)ethyl]benzamide]	98 to 102 °C	1.78	> 10000	120	
Cc1cc(NC(=O)c2cccc(OCc3ccc(N)nc3)c2)ccc1C(C)C [Example L-1, 3-(6-Aminopyridin-3-yl)methoxy-N-(4-Isopropyl-3-methyl-phenyl)-benzamide]	78 to 81 °C				
CC(=O)Nc1ccc(COc2cccc(C(=O)Nc3ccc(C(C)C)c(C)c3)c2)cn1 [Example N-2, 3-(6-Acetylaminopyridin-3-yl)methoxy-N-(4-Isopropyl-3-methyl-phenyl)-benzamide]	98 to 101 °C		> 10000	> 100	inhibition at 0.05 µM [4]: 8%
Cc1cc(NC(=O)c2cccc(OCc3cnc(NNC(=O)OC(C)(C)C)c4ccccc34)c2)ccc1C(C)C [Example P-1, N′-{4-[3-(4-isopropyl-3-methyl-phenylcarbamoyl)-phenoxymethyl]-isoquinolin-1-yl}-hydrazinecarboxylic acid tert-butyl ester]	125 to 129 °C				inhibition at 0.05 µM [1]: 4%
O=C(Nc1cccc(OC(F)(F)F)c1)c1cccc(OCc2cncc3ccccc23)c1 [Example R-4, 3-(Isoquinolin-4-ylmethoxy)-N-(3-trifluoromethoxy-phenyl)-benzamide]		9.93	9900	88	Ki [4]: 2.4 nM; inhibition at 1 µM (LCK tyrosine kinase): 28%
CC1(C)OC(C)(C)c2cc(NC(=O)c3cccc(OCc4cncc5ccccc45)c3)ccc21 [Example R-10, 3-(Isoquinolin-4-ylmethoxy)-N-(1,1,3,3-tetramethyl-1,3-dihydroisobenzofuran-5-yl)-benzamide]		12.1	> 10000	28	Ki [4]: 6.9 nM; inhibition at 1 µM (LCK tyrosine kinase): 23%
O=C(Nc1ccc(N2CCOCC2)c(C(F)(F)F)c1)c1ccc(F)c(OCc2cnc3ccccc3c2)c1 [Example R-16, 4-Fluoro-N-(4-morpholin-4-yl-3-trifluoromethyl-phenyl)-3-(quinolin-3-ylmethoxy)-benzamide]	81 to 84 °C		5600	13	Ki [4]: 2.3 nM
CC(=O)Oc1ccc(C(=O)Nc2cccc(OCc3cccnc3)c2)cc1C(C)(C)C [Example X-2, 4-Acetoxy-3-t-butyl-N-[3-(pyridin-3-ylmethoxy)phenyl]-benzamide]	58 to 62 °C				Ki ([4]; unphosphorylated VEGF-R2 construct): 9.1 nM

— patent US6635641B2 (Agouron Pharmaceuticals, Inc., priority 2000, dated 2003)
